Experimental data: ChEMBL document CHEMBL1201862, “PubChem BioAssay data set” (2004)
Calls of active or inactive are those of the source.

What was measured:
[1] = biological target: T1, Replicative DNA helicase DnaB (Mycobacterium tuberculosis, UniProt P9WMR3); experiment: DnaB intein splicing inhibitors, dose response, biochemical, cell-free fluorescence (AID 449749); assay type: functional
T1 sequence (P9WMR3 whole entry): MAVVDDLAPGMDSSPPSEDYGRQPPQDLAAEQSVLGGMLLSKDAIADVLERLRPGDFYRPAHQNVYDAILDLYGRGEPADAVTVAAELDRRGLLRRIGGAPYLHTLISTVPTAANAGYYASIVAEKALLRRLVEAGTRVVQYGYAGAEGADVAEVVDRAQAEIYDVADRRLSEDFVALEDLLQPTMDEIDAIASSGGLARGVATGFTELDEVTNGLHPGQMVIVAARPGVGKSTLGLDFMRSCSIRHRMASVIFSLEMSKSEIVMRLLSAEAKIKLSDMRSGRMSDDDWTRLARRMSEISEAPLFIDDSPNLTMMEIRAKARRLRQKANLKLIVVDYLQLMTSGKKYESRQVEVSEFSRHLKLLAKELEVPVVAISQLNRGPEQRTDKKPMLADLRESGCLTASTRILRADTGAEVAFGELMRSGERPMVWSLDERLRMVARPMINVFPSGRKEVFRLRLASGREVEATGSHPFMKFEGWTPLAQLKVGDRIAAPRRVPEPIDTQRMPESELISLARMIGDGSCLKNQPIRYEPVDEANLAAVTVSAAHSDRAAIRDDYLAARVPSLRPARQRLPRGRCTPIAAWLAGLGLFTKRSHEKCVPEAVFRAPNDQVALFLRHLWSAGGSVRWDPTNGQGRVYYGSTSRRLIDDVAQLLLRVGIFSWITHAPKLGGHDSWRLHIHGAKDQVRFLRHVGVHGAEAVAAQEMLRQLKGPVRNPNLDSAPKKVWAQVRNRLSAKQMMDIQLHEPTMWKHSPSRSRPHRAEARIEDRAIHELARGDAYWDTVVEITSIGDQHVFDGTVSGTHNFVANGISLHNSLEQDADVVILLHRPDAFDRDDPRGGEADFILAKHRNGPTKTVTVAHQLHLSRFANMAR

Genome polyprotein = Genome polyprotein (dengue virus type 2, UniProt P29990); experiment: flavivirus cap methylation enzyme inhibition – biochemical, confirmation dose response, primary screen (AID 588689); assay type: functional
Sequence of Genome polyprotein (P29990 2492-3391 limits assumed): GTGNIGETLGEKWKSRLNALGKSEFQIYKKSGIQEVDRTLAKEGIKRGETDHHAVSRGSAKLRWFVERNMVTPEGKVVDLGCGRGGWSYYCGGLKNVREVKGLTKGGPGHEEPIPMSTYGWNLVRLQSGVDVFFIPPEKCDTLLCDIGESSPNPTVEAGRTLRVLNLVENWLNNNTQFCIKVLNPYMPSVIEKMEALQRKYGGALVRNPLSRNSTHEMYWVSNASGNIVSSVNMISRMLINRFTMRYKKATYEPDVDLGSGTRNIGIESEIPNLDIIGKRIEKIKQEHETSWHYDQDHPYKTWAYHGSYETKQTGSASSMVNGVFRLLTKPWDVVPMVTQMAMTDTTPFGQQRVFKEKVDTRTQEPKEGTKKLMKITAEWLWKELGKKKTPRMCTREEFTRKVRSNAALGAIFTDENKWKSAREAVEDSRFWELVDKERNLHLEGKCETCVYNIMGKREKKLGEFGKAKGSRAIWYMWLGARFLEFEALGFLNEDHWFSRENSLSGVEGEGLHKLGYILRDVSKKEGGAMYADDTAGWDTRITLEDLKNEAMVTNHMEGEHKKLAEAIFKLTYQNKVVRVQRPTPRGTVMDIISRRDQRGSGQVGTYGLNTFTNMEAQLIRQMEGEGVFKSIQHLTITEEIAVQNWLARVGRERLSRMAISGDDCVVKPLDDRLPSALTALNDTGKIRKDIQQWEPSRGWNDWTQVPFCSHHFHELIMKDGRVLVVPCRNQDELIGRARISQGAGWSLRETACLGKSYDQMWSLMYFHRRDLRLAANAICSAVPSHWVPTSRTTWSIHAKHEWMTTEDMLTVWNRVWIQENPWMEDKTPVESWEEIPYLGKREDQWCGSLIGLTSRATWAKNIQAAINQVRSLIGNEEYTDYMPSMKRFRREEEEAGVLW

[2] = test system: Streptococcus sp. 'group A'; experiment: Streptococcus pyogenes SK(-)GAS viability under kanamycin – luminescence, BacTiterGlo, confirmation, counter-screen for streptokinase expression inhibitor project, dose response (AID 1900); assay type: functional, organism-based
Streptococcus = experiment: GAS UMAA2166 growth inhibition – luminescence, BacTiterGlo, counter-screen for streptokinase expression inhibitor project, dose response (AID 1915); assay type: functional, organism-based;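 note: potency for reduction of bacterial viability or growth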
Aminopeptidase N = biological target: T2, Aminopeptidase N (Plasmodium falciparum FcB1/Columbia, UniProt O96935); experiment: malaria alanyl aminopeptidase activity blockers – biochemical, fluorogenic H-Leu-NHMec substrate, 1536-well (AID 1445); parameters: species or system Plasmodium falciparum 3D7, 3D7
T2 sequence (O96935 whole entry): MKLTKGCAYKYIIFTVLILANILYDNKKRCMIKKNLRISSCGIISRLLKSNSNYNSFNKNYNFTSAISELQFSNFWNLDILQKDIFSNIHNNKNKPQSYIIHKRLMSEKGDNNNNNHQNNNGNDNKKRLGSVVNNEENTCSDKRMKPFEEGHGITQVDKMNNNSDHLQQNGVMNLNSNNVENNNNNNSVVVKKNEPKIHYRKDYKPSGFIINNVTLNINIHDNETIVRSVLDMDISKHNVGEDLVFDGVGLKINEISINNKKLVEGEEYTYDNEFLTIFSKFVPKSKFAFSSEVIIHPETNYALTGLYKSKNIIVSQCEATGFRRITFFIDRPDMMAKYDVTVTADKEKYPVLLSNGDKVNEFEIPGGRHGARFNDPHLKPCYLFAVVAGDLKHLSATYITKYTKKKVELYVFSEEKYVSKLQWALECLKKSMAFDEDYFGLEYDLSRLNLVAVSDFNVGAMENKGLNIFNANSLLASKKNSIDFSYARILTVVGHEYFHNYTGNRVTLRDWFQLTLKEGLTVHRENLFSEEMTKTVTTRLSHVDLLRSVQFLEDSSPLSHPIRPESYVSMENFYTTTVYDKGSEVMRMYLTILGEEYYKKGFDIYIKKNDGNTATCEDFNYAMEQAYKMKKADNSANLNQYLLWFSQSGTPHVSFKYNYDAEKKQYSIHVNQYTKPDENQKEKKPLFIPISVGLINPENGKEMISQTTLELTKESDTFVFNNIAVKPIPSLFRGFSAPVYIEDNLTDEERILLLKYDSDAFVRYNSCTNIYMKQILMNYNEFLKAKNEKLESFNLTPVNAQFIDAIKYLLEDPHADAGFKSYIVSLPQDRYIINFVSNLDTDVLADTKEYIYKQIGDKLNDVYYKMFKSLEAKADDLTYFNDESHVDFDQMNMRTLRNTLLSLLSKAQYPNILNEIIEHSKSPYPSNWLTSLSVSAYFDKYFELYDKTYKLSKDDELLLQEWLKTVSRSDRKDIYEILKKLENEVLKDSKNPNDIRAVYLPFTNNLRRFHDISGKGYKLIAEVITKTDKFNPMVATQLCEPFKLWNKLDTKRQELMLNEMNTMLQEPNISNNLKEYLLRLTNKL

Streptokinase A = biological target: T3, Streptokinase A (Streptococcus pyogenes serotype M1, UniProt P10520); experiment: viability-normalized secreted streptokinase activity reduction – plasminogen activation absorbance, OD405, dose response (AID 1914); assay type: functional, Streptococcus pyogenes M1 GAS;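 note: secreted streptokinase activity via plasminogen activation per viability signal from cell pellet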
T3 sequence (P10520 whole entry): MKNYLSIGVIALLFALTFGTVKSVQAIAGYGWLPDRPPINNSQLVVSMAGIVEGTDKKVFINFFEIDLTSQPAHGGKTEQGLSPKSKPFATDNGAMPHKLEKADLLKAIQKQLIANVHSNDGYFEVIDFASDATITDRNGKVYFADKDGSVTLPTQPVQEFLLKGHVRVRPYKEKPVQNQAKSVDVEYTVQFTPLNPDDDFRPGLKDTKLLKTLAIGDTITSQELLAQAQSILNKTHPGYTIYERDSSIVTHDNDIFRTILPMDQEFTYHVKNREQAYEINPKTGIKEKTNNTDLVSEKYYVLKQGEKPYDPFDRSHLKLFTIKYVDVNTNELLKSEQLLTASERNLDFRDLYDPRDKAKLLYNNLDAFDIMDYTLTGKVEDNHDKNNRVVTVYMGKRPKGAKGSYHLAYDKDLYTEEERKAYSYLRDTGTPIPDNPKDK

[3] = CCR5-tropic HIV-1 fusion blockers – cell-based, CCR5-tropic Env, dose response (AID 2279); assay type: functional
Protein RecA = biological target: T4, Protein RecA (Mycobacterium tuberculosis, UniProt P9WHJ3); experiment: Fluorescence Cell-Free Homogeneous Dose Retest to Identify Inhibitors of RecA-Intein Splicing Activity. [Related pubchem assays (depositor defined):AID2097, AID2223, AID489010, AID492950]; assay type: functional
T4 sequence (P9WHJ3 whole entry): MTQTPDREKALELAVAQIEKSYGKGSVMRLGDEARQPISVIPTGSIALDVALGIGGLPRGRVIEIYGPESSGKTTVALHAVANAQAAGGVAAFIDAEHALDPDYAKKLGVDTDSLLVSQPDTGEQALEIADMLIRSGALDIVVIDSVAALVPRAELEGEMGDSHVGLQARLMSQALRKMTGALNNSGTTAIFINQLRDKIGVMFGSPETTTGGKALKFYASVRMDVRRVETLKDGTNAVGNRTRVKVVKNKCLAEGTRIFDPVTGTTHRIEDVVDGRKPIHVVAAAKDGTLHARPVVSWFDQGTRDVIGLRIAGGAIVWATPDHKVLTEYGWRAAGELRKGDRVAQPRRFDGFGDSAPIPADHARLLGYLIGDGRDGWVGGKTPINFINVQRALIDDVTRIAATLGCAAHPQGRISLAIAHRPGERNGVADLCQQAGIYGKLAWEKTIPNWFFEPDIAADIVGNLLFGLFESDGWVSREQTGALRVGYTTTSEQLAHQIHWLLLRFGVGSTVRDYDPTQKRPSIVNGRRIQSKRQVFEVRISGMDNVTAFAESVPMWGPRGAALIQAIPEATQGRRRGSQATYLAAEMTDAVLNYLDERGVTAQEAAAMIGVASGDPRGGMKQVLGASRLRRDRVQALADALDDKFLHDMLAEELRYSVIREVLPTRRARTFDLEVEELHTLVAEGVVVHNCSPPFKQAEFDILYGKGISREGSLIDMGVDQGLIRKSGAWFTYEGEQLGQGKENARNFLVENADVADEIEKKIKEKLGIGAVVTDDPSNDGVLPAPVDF

[4] = A Cell Based Secondary Assay To Explore Cytotoxicity of Compounds that Sensitize Mycobacterium Tuberculosis to Beta-Lactam Antibiotics.; assay type: functional
Paired box protein Pax-8 = Paired box protein Pax-8 (Homo sapiens, UniProt Q06710); experiment: PAX8 transcriptional activity inhibition in RMG-I – RMG-I cells, luciferase, cherry-pick, dose response (AID 687027); assay type: functional, cell-based;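 note: luciferase reporter driven by Pax8 target thyroperoxidase promoter measured by SteadyGlo luminescence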
Sequence of Paired box protein Pax-8 (Q06710 whole entry): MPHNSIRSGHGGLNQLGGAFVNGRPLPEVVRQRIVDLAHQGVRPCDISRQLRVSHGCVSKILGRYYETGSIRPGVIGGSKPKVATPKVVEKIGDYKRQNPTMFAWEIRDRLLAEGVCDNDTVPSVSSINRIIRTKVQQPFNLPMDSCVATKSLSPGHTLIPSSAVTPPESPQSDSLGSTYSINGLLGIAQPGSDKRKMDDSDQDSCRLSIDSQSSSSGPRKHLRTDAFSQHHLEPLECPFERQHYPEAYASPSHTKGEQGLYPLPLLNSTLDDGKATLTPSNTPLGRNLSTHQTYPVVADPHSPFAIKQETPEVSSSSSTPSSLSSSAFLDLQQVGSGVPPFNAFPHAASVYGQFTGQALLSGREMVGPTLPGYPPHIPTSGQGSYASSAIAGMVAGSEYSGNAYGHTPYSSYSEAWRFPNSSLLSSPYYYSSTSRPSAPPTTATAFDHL

[5] = A549 cell cytotoxicity, dose response, cytotoxicity control, plate reader, cherry-pick, antagonist series (AID 743412); assay type: functional, cell-based
[6] = blockade of melanocortin 4 receptor signaling – cell-based, plate reader, cherry pick, counter-screen for LGR2 antagonist project, dose response (AID 743444); assay type: functional;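 note: transfected HEK 293 cells stimulated with alpha-MSH peptide; potency of inhibitors of the alpha-MSH evoked signal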
[7] = blockers of bursicon-stimulated LGR2 cAMP reporter – cell-based, HEK293, CRE-luciferase reporter, cherry pick, set 2, dose response (AID 743343); assay type: functional;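 note: transfected cells were stimulated with diluted bursicon conditioned medium after compound addition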
[8] = viability loss in HEK293 cells – cell-based, plate reader, cherry-picked samples, cytotoxicity control, dose response (AID 743446); assay type: functional
[9] = biological target: T5, Microphthalmia-associated transcription factor (Homo sapiens, UniProt O75030); experiment: reducers of TRPM1 reporter luminescence, concentration series – cell-based, SK-MEL-5, cherry-picked, set 3, MITF inhibitor project, dose response (AID 493073); assay type: functional;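 note: SK-MEL-5 melanoma cells with luciferase driven by the MITF target TRPM1 promoter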
T5 sequence (O75030 whole entry): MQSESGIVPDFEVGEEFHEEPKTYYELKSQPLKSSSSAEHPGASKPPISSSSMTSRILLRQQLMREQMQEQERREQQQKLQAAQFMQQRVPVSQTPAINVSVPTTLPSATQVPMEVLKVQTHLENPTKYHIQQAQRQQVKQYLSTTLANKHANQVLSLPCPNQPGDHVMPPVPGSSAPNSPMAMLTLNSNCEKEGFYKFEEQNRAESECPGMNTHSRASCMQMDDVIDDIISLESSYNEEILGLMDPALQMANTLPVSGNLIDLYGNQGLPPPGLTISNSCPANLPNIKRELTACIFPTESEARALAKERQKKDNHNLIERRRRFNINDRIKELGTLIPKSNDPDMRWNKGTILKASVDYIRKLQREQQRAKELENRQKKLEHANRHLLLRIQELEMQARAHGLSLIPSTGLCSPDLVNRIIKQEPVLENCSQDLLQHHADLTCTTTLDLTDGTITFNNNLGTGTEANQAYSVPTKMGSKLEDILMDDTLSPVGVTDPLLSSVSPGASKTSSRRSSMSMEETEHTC

[10] = toxicity toward HepG2 liver cells – cell-based, plate reader, cherry-pick, antagonist series, cytotoxicity control, dose response (AID 743416); assay type: functional
[11] = biological target: Serine/threonine-protein phosphatase (Homo sapiens, UniProt Q9BPW0); experiment: Counterscreen for inhibitors of PP1: fluorescence-based biochemical high throughput dose response assay to identify inhibitors of Protein Phosphatase 5 (PP5). [Related pubchem assays: 2034 (Summary (PP5 inhibitors)), 1987 (PP5 inhibitors in singlate), 2235 (PP1 inhibitors in singlate)]
Sequence of Serine/threonine-protein phosphatase (Q9BPW0 whole entry): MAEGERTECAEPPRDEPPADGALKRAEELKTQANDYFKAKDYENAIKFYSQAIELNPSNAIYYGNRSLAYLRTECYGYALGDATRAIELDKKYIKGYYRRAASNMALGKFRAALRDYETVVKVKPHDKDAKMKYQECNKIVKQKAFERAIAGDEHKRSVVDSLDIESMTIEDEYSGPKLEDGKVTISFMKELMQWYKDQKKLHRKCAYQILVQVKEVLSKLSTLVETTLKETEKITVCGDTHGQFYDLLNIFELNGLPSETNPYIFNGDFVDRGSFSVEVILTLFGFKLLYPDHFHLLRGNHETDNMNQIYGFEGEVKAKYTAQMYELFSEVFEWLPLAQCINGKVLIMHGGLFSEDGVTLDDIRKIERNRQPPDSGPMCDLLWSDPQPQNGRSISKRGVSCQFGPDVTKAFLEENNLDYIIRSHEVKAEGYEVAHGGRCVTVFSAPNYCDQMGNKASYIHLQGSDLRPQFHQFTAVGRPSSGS

[12] = biological target: Serine/threonine-protein phosphatase PP1-alpha catalytic subunit (Homo sapiens, UniProt P62136); experiment: inhibition of protein phosphatase 1 activity – biochemical, fluorescence, dose response (AID 2403);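 note: phosphatase turnover of OMFP into fluorescent 3-O-methylfluorescein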
Sequence of Serine/threonine-protein phosphatase PP1-alpha catalytic subunit (P62136 whole entry): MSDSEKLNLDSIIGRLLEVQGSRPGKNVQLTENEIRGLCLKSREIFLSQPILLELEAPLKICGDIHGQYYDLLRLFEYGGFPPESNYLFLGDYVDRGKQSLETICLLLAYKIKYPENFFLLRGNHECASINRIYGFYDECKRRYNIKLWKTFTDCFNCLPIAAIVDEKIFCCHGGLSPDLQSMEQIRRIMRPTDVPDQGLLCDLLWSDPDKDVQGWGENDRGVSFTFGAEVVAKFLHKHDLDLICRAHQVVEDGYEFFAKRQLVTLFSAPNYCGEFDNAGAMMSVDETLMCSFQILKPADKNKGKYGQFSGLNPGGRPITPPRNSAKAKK

INS1 = experiment: INS-1E survival protection against cytokine death – cell-based, luminescence, retest, dose response (AID 449756); assay type: functional; conditions: Rattus norvegicus;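 note: cell death triggered by IL-1 beta plus TNF-alpha plus IFN-gamma mixture; protective hits raise ATP signal compared with cytokine alone wells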
[13] = Trypanosoma cruzi growth suppression in host cells – NIH3T3 host cells, beta-gal luminescence, confirmation (AID 2044); assay type: functional, cell-based;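 note: intracellular parasites grown in NIH/3T3 mouse fibroblasts as host cells; luminescent beta-galactosidase reporter signal from transgenic T. cruzi replicating inside host cells; inhibitors lower the luminescence signal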
[14] = NIH3T3 cell viability loss – ATP luminescence, mouse fibroblasts, counter-screen, dose response (AID 2010); assay type: functional, cell-based;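 note: cells exposed to compound for about 90 hours before reading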

Compound: O=C(O)c1ccccc1-c1ccccc1C(=O)Nc1ccc(-c2nc3cc(Cl)ccc3o2)cc1
- AC50 [1]: 3.18 µM (active)
- IC50 (Genome polyprotein): 54 µM (active)
- EC50 [2]: 7.55 µM (active)
- EC50 (Streptococcus): 14 µM (active)
- IC50 (Aminopeptidase N): 32.6 µM (active)
- EC50 (Streptokinase A): > 150 µM (not active)
- IC50 [3]: > 50 µM (active)
- EC50 (Protein RecA): 11.7 µM (active)

Compound: Cn1nnnc1Sc1ncnc2scc(-c3cccc(F)c3)c12
- CC50 [4]: 17.6 µM (active)
- AC50 (Paired box protein Pax-8): 2.64 µM (active)
- AC50 [5]: 7.53 µM (active)
- AC50 [6]: 12 µM (active)
- AC50 [7]: 6.24 µM (active)
- AC50 [8]: 6.26 µM (active)
- AC50 [9]: 5.98 µM (active)
- AC50 [10]: 6.73 µM (active)

Compound: COc1ccc(Sc2nc(-c3ccccn3)ncc2OC)cc1
- IC50 [11]: > 67 µM (not active)
- IC50 [12]: 6.04 µM (active)
- AC50 (INS1): 5.13 µM (active)
- EC50 [13]: 1.9 µM (active)
- EC50 [14]: > 60 µM (inconclusive)
